Measurements: PubChem BioAssay AID540268 (Broad Institute, 2011)
The source made the active and inactive calls. The rule behind the calls is not given here.

Test: reduced viability of parasite-Hsp90 expressing yeast – ATP luminescence, 48 h, cherry-picked samples, anti-malarial Hsp90 inhibitor project, dose response (AID 540268);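 for activity change, negative = inhibition: 0% = neutral control wells and -100% = positive control wells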
Settings: yeast expressing the parasite Hsp90, ATP luminescence; for activity change, negative = inhibition: at 26 µM (top of the series)

SMILES	AC50	activity change, negative = inhibition
O=[N+]([O-])c1ccc(C=Nc2ccc(Cl)c([N+](=O)[O-])c2)s1	2.13 µM	
CC(C)(C)c1cc(C(c2cccnc2)N2CCN(CCO)CC2)cc(C(C)(C)C)c1O (stereo not drawn)	25 µM	
COc1cc2c(cc1OC)C(=O)N1[C@H]3c4ccccc4OC[C@@H]3[C@H](c3ccccc3)[C@]1(C)C(=O)N2	8.37 µM	
C/C(=N\Nc1ncnc2sc(C)c(C)c12)c1ccccn1	2.01 µM	
Cc1c(OCC(=O)C(C)(C)C)ccc2c(-c3ccccc3)cc(=O)oc12	8.35 µM	
COc1ccc2c(c1)[C@H]1[C@H](CO2)[C@H](c2ccccc2)[C@]2(C)C(=O)Nc3ccc(Cl)cc3C(=O)N12	1.8 µM	
COc1ccc(C2=CC3=C(Br)C(=O)C(C)(OC(=O)c4ccco4)C(=O)C3=CO2)cc1 (stereo not drawn)	3 µM	
O=c1c(-c2ccccc2)c(-c2ccccc2)oc2cc(O)cc(O)c12	8.72 µM	
NC(=O)c1ccc(N=Cc2ccc([N+](=O)[O-])s2)cc1	1.48 µM	
CCOc1cc(S(=O)(=O)NC2CCCCCC2)ccc1F	5.56 µM	
COc1ccc2c(n1)Sc1nc3ccccc3nc1N2	12.1 µM	
O=C(O)c1ccc(N/N=C/c2ccc(-c3ccccc3)cc2)cc1	4.22 µM	
C=CCn1c(C)cc(C(=O)CSc2nnc(NCc3ccccc3)s2)c1C	4.2 µM	
CNc1ccc2oc(C[C@H]3O[C@@]4(CC[C@H]3C)O[C@H]([C@H](C)C(=O)c3ccc[nH]3)[C@H](C)C[C@H]4C)nc2c1C(=O)O	0.813 µM	
CN(C)/C=C/C(=O)c1ccc2noc(-c3ccccc3)c2c1	8.37 µM	
Oc1c(C(Nc2nccs2)c2ccc(C(F)(F)F)cc2)ccc2cccnc12 (stereo not drawn)	2.49 µM	
Cc1cccc(C)c1N=Nc1c(C)cc(O)cc1C	8.29 µM	
CC(C)OC(=O)c1ccc(NCc2cc(O)ccc2O)cc1Cl	24.1 µM	
O=C(Nc1nnc(-c2ccc3c(c2)CCCC3)o1)c1ccc(Cl)cc1Cl	3.35 µM	
Cc1ccc(NC(=O)c2nc(S(=O)(=O)Cc3ccccc3)ncc2Cl)cc1	4.12 µM	
CC1=CC(=O)C=C(C)C1=NOS(=O)(=O)c1ccccc1	1.4 µM	
Oc1cc(Cl)ccc1Oc1ccc(Cl)cc1Cl	7.54 µM	

SMILES	AC50	activity change, negative = inhibition
O=C(OCn1ncc(Br)c(Br)c1=O)c1ccccc1Cl	4.29 µM	
CCCCC(CC)CN=C(N)NC(N)=NCCCCCCN=C(N)NC(N)=NCC(CC)CCCC (stereo not drawn)	4.34 µM	
COC(=O)[C@@H]1[C@@H](C#N)C2(c3ccccc3-c3ccccc32)N(c2ccc(Cl)cc2)N1C#N	2.81 µM	
Clc1ccc(CSC(Cn2ccnc2)c2ccc(Cl)cc2Cl)cc1 (stereo not drawn)	0.576 µM	
CC1=C(C)/C(=N\OS(=O)(=O)c2ccc(C)cc2)C=CC1=O	1.22 µM	
Cc1onc(-c2ccccc2)c1C(=O)NC(=S)NNC(=O)c1ccccc1O	2.24 µM	
O=C1C=CC(=O)N1c1ccc(Nc2ccccc2)cc1	< 0.195 µM	
O=C1C=CC(=O)N1c1cccc(-c2ccccc2)c1	< 0.195 µM	
On1ccccc1=S	< 0.195 µM	
O=C1C(Cl)=C(NCCc2ccccc2)C(=O)c2ccccc21	0.556 µM	
O=C1C2C3C=CC(CNS(=O)(=O)c4ccccc4)(O3)C2C(=O)N1c1ccc(Cl)cc1 (stereo not drawn)	3.73 µM	
CC1=C(O)C(=O)C=C2C1=CC=C1C2(C)CCC2(C)C3CC(C)(C(=O)O)CCC3(C)CCC12C (stereo not drawn)	1.48 µM	
Cc1cc(C)c2c(N=NN(C)C)[nH]nc2n1	3.92 µM	
COc1ccccc1-c1sc2cc3c(cc2c1-c1ccc(O)cc1)OCO3	8.2 µM	
CC(=O)Oc1ccccc1C(=O)C=Cc1cccc([N+](=O)[O-])c1	1.66 µM	
O=C1C=C(c2ccc(Cl)cc2)C(=O)N1Nc1ccccc1	< 0.195 µM	
COc1ccc2oc(=O)c(-c3csc(Nc4cccc(O)c4)n3)cc2c1	7.93 µM	
CCOc1ccc2nc(NC(=O)c3ccoc3C)sc2c1	6.99 µM	
COc1ccc(C2=CC3=C(Br)C(=O)C(C)(OC(=O)C4CCCC4)C(=O)C3=CO2)cc1 (stereo not drawn)	4.4 µM	
COC(=O)C1=C(C(=O)OC)C2OC1c1cc3ccccc3cc12	1.92 µM	
CCCCCCCCCCCCCCCC[N+](C)(C)C	8.6 µM	
COC(=O)C1=C(C(=O)OC)SC2(S1)C(C(=O)OC)=C(C(=O)OC)Sc1c2ssc1=O	8.87 µM	

SMILES	AC50	activity change, negative = inhibition
CCCCCCCCCCCCCCCC[N+](C)(C)CCN(Cc1ccc(OC)cc1)c1ncccn1	4.14 µM	
O=[N+]([O-])c1ccc(Sc2cccc[n+]2[O-])c2nonc12	6.88 µM	
CC(C)OC(=O)c1ccc(NCc2cc(O)ccc2O)cc1	6.94 µM	
COc1ccc(OC)c2c1C(=O)C(Cl)=C(Cl)C2=O	1.64 µM	
O=C(Nc1ccccc1)c1nnsc1S(=O)(=O)c1ccc(Cl)cc1	0.435 µM	
O=C(/C(=C/c1cccc(Cl)c1)c1nc2ccccc2[nH]1)c1ccccc1		49.8% (inactive)
Cc1ccc(C(=O)C(SC(C)(C)C)n2cncn2)cc1 (stereo not drawn)	4.25 µM	
O=[N+]([O-])c1cc(-n2cnnn2)ccc1N1CCC(Cc2ccccc2)CC1	4.23 µM	
O=C1/C(=C\c2ccc([N+](=O)[O-])cc2)CS(=O)(=O)C/C1=C/c1ccc([N+](=O)[O-])cc1	0.337 µM	
CCOC(=O)c1sc(-c2ccc(C(F)(F)F)cc2)nc1O	2.59 µM	
COc1ccc(NC(=O)CCC(=O)N/N=C/c2ccc([N+](=O)[O-])s2)cc1	3.33 µM	
O=C1C=C(c2cccs2)C[C@H](c2ccccc2)[C@H]1n1nnc([N+](=O)[O-])n1	11.8 µM	
Cc1cccc(N2C(=O)C=CC2=O)c1	0.372 µM	
O=c1oc2ccccc2c(O)c1Cc1cc(Cl)c2cccnc2c1O	3.36 µM	
COc1cc(C#Cc2c(-c3cncn3C)n(C)c3ccc(-c4ccc(OC)nc4)cc23)cc(OC)c1	4.74 µM	
Cc1ccc(C(=O)c2no[n+]([O-])c2C(=O)c2ccc(C)cc2)cc1	2.03 µM	
CCN1C/C(=C\c2cccc([N+](=O)[O-])c2)C(=O)/C(=C/c2cccc([N+](=O)[O-])c2)C1	5.63 µM	
CC(=NNC(=S)Nc1cccc(C)c1)c1ccccn1	4.3 µM	
COC(=O)/C=C\C(=O)Nc1cccc([N+](=O)[O-])c1	2.43 µM	
CCC(=O)NC(c1cccs1)c1ccc2cccnc2c1O (stereo not drawn)	7.69 µM	
O=C(OCC(=O)N1CCN(C(=O)c2ccco2)CC1)c1cc(-c2cccc(Br)c2)nc2ccccc12	4.39 µM	
O=C(CCCNC(=O)c1ccc(Cl)cc1)OCc1cccc(Br)c1	4.54 µM	

SMILES	AC50	activity change, negative = inhibition
COc1cccc(/C=N/Nc2ncc(C(F)(F)F)cc2Cl)c1O	4.33 µM	
COc1cc(N2C(=O)C=CC2=O)c(OC)cc1Cl	1.77 µM	
Cc1ccc(C(C)C)c(OCc2ccc(C(=O)N/N=C/c3cccc(O)c3O)cc2)c1	1.62 µM	
CC1(C)CC[C@]2(C(=O)O)CC[C@]3(C)C(=CC[C@@H]4[C@@]5(C)CC[C@H](O[C@@H]6O[C@H](C(=O)O)[C@@H](O)[C@H](O[C@@H]7OC[C@H](O)[C@H](O)[C@H]7O)[C@H]6O)C(C)(C)[C@@H]5CC[C@]43C)[C@@H]2C1	1.06 µM	
O=C(/C=C/c1ccccn1)c1cc(Br)ccc1O	1.01 µM	
Cc1ccc(O)c(NC(=S)NC(=O)c2ccc(-c3ccc(Cl)cc3)o2)c1	14.7 µM	
Cc1[nH]n(-c2ccc([N+](=O)[O-])cc2)c(=O)c1C=NCCN1CCN(C(=O)c2cccc(F)c2)CC1	5.83 µM	
O=C(/C(=C\c1ccccc1)c1nc2ccccc2[nH]1)c1ccc(Cl)cc1		-31.8% (inactive)
Clc1nssc1=Nc1ccc(Br)cc1	3.4 µM	
Oc1ccc(Cl)cc1Sc1cc(Cl)ccc1O	3.07 µM	
COc1cccc(/C=C/c2ccc3cccc(O)c3n2)c1	< 0.195 µM	
CCCOC(=O)c1ccc(Oc2cn[nH]c2-c2ccc(OCC)cc2O)cc1	< 0.195 µM	
COc1ccc(N(C(=O)c2ccncc2)S(=O)(=O)c2ccc(Cl)cc2)cc1	0.562 µM	
CCCCCCCCCCCCCCCC[n+]1ccc(C(N)=O)cc1	7.6 µM	
O=C(Nc1nc(-c2cccs2)cs1)c1ccc([N+](=O)[O-])o1	5.69 µM	
COc1cc(/C=C/[N+](=O)[O-])ccc1OC(=O)c1cccnc1	1.65 µM	
Cc1cc(C)c(S(=O)(=O)N2CCC(C(=O)NCc3ccc(Cl)cc3Cl)CC2)c(C)c1	0.835 µM	
CCc1ccc(OCC(=O)NNC(=S)NC(=O)C2CC2)c(Br)c1	1.12 µM	
N#C/C(=C/c1ccc(N2CCCCCC2)o1)c1ccc(Cl)cc1		-50.5% (inactive)
COc1ccc(C(C[N+](=O)[O-])n2nc(C)cc2C)cc1 (stereo not drawn)	0.365 µM	
CN(C)/C=C/C(=O)c1ccc2noc(-c3cccc(F)c3)c2c1	13.5 µM	
CCCOc1ccc2ccccc2c1/C=C1\SC(=O)NC1=O	7.76 µM	

SMILES	AC50	activity change, negative = inhibition
CC(C)N=c1scc(-c2cccs2)n1/N=C/c1ccc(O)c(O)c1O	7.43 µM	
CC[C@H](C)/C=C/C1=CC2=C(Cl)C(=O)[C@@]3(C)OC(=O)C(C(=O)[C@H](C)[C@@H](C)O)=C3C2=CO1	15.2 µM	
CC(C)(C)c1cc(NCc2ccccn2)n2ncc(-c3ccccc3)c2n1	1.49 µM	
O=C(N/N=C/c1ccc([N+](=O)[O-])o1)c1sc2ccccc2c1Cl		18.4% (inactive)
NC(=O)/C=C\C(=O)Nc1cccc(C(F)(F)F)c1		12.6% (inactive)
CCCC(=O)NC(c1ccc(OC)c(OC)c1)c1cc(Cl)c2cccnc2c1O (stereo not drawn)	6.12 µM	
Cc1cc2ccccn2c1C(=O)c1ccc([N+](=O)[O-])o1	2.33 µM	
CC(=NNc1nc2ccccc2o1)c1cc2ccccc2cn1	17.7 µM	
CC[C@H](C)/C=C(C)/C=C/C1=CC2=C(Cl)C(=O)[C@](C)(OC(C)=O)C(=O)C2=CO1	2.11 µM	
Cc1cccc(NC(=O)c2nc(S(=O)(=O)Cc3ccccc3)ncc2Cl)c1	3.15 µM	
O=c1c2ccccc2sn1-c1ccccc1	9.19 µM	
Cc1c(Cc2ccccc2)c(NCCN(C)C)n2c(nc3ccccc32)c1C#N	0.701 µM	
O=C(CN1CCN(c2ncc(C(F)(F)F)cc2Cl)CC1)NCCNc1ncc(C(F)(F)F)cc1Cl	3.49 µM	
Cc1cc(C)c2c(N=NN3CCOCC3)[nH]nc2n1	7.65 µM	
O=[N+]([O-])c1ccc(C=Nc2ccc(Cl)cc2Cl)s1	8.6 µM	
CN1C(=O)C(N=Nc2ccc([N+](=O)[O-])cc2)SC1=S (stereo not drawn)	3.87 µM	
CCN1/C(=C\c2ccc3cc(C)ccc3[n+]2CC)Sc2cc(C)c(C)cc21	3.51 µM	
O=C(N/N=C/c1c(O)ccc2ccccc12)c1cccc(C(F)(F)F)c1	2.86 µM	
Cc1ccc2nc(/C(C#N)=C\c3ccc([N+](=O)[O-])o3)[nH]c2c1	< 0.195 µM	
O=[N+]([O-])c1ccc(O)c(C2CCCCC2)c1	4.84 µM	
